{"source": "patent US5204471A", "about": "“α-trifluoromethyl-substituted, saturated bicyclic amines” (Bayer Aktiengesellschaft, priority 1991, dated 1993)", "key": {"HIV protease": {"target": "T1, HIV protease (Human immunodeficiency virus type 1 group M subtype B, UniProt P04585)", "T1 construct": "purified HIV protease", "assay": "HIV-specific protease enzyme test (cleavage of synthetic Gag peptide, RP HPLC)", "format": "biochemical", "conditions": "purified HIV protease, HIV-1, synthetic peptide substrate; read-out: IC50 value (concentration causing 50% inhibition of the protease activity)", "method": "HIV-specific protease enzyme test according to J. Hansen, S. Billich, T. Schulze, S. Sukrow and K. Molling, EMBO Journal, Vol. 7, No. 6, pages […] (1988).\nThis test was carried out by incubation of purified HIV protease with synthetic peptide which imitates a cleavage site in the Gag precursor protein and represents an in vivo cleavage point of the HIV protease. The resulting cleavage products of the synthetic peptide were analysed by reversed-phase high performance liquid chromatography (RP HPLC). The compound obtained according to Example 11 gave an IC50 value of 5×10^-8 with HIV-1. The IC50 value indicates the concentration of the substance causing 50% inhibition of the protease activity under the test conditions."}, "HIV": {"test_system": "HIV", "assay": "HIV test in a cell culture (syncytia formation in infected PBLs)", "format": "cell-based", "conditions": "Human immunodeficiency virus 1, Lymphocyte, 72 h; HIV-infected normal human blood lymphocytes (PBLs), evaluated day 3 to 6 after infection; read-out: IC50 value (PBL), 50% suppression of virus-induced syncytia", "method": "HIV test in a cell culture with slight modifications according to Pauwels et al., Journal of Virological Methods 20, pages 309-321 (1988).\nNormal human blood lymphocytes (PBLs) were concentrated via Ficoll-Hypaque and stimulated with phytohaemagglutinin (90 μg/ml) and interleukin-2 (40 U/ml) in RPMI 1640, 20% fetal calf serum. For infection with the infectious HIV, the PBLs were pelletised, and the cell pellet was then suspended in 1 ml of HIV virus adsorption solution and incubated at 37° C. for 1 hour.\nThe virus adsorption solution was centrifuged, and the infected cell pellet was taken up in growth medium in such a manner that 1×10^5 cells were present per ml. The cells infected in this manner were pipetted into the wells of 96-well microtitre plates in such a manner that each well contained 1×10^4 cells.\nThe first vertical row of the microtitre plate only contained growth medium and cells which were not infected but otherwise had been treated in the same manner as described above (cell control). The second vertical row of the microtitre plate only contained HIV-infected cells (virus control) in growth medium. […]\nThe test batches were incubated at 37° C. until the formation of syncytia typical for HIV occurred in the untreated virus control (between day 3 and 6 after infection), which formation was then evaluated under a microscope. […]"}}, "data": [{"smiles": "CC(C)[C@H](NC(=O)[C@H](Cc1cccc2ccccc12)CS(=O)(=O)C(C)(C)C)C(=O)N[C@@H](Cc1ccccc1)C(O)CN1CCC2CCCCC2C1C(F)(F)F", "note": "(some centres unmarked) [Example 11]", "values": [{"measurement": "IC50", "setting": "HIV protease", "result": 50, "unit": "nM"}, {"measurement": "IC50", "setting": "HIV", "result": 2500, "unit": "nM"}]}]}
